Laboratory results as given in paper PMC5656653, “Evaluation of Ga-DOTA-(D-Asp)n as bone imaging agents: D-aspartic acid peptides as carriers to bone” (Scientific Reports, 2017).
Where a SMILES comes first, the peptide text is derived from it. [ ]: non-standard residue; d: D form. The star is where a group is joined. DOTA = O=C(O)CN1CCN(CC(=O)O)CCN(CC(=O)*)CCN(CC(=O)O)CC1

Assay: Biodistribution experiments in normal mice after i.v. injection
Format: in vivo
Details: mouse, in vivo, iv; for tissue uptake dose at 10 min / tissue uptake dose at 1 h / tissue uptake dose at 3 h: male, ddY, total radioactivity, Biodistribution of radioactivity
Experimental: Experiments with animals were conducted in strict accordance with the Guidelines for the Care and Use of Laboratory Animals of Kanazawa University. The animal experimental protocols used were approved by the Committee on Animal Experimentation of Kanazawa University (Permit Number: AP-132633). Biodistribution experiments were performed after intravenous administration of each diluted tracer solution (37–740 kBq/100 μL) to 6-week-old male ddY mice (27–32 g, Japan SLC, Inc., Hamamatsu, Japan). Four or five mice at each time point after the administration of each compound were sacrificed by decapitation at 10, 60, and 180 min post-injection. Tissues of interest were taken and weighed. Complete left femurs were isolated as representative bone samples, radioactivity was determined using gamma counters (AccuFLEX γ ARC-8001 in the case of ^18F, Hitachi, Ltd.), and background counts and physical decay were corrected during counting.

Structure (SMILES)	tissue uptake dose at 10 min (Blood)	tissue uptake dose at 1 h (Blood)	tissue uptake dose at 3 h (Blood)	tissue uptake dose at 10 min (Bone (Femur))	tissue uptake dose at 1 h (Bone (Femur))	tissue uptake dose at 3 h (Bone (Femur))	tissue uptake dose at 10 min (Brain)	tissue uptake dose at 1 h (Brain)	tissue uptake dose at 3 h (Brain)	tissue uptake dose at 10 min (Heart)	tissue uptake dose at 1 h (Heart)	tissue uptake dose at 3 h (Heart)	tissue uptake dose at 10 min (Kidney)	tissue uptake dose at 1 h (Kidney)	tissue uptake dose at 3 h (Kidney)	tissue uptake dose at 10 min (Large-intestine)	tissue uptake dose at 1 h (Large-intestine)	tissue uptake dose at 3 h (Large-intestine)	tissue uptake dose at 10 min (Liver)	tissue uptake dose at 1 h (Liver)	further results
O=C(O)C[C@@H](NC(=O)[C@@H](CC(=O)O)NC(=O)CN1CCN(CC(=O)O)CCN(CC(=O)O)CCN(CC(=O)O)CC1)C(=O)O [^67Ga-DOTA-(D-Asp)2, metal not drawn] ({DOTA}-[dD]-[dD]-OH)	2.19 %ID	0.24 %ID	0.05 %ID	1.57 %ID	0.88 %ID	0.49 %ID	0.07 %ID	0.02 %ID	0.01 %ID	0.86 %ID	0.11 %ID	0.06 %ID	7.61 %ID	6.33 %ID	1.42 %ID	0.37 %ID	0.12 %ID	0.38 %ID	0.57 %ID	0.31 %ID	tissue uptake dose at 3 h (Liver): 0.11 %ID; tissue uptake dose at 10 min (Lung): 1.45 %ID; tissue uptake dose at 1 h (Lung): 0.26 %ID; tissue uptake dose at 3 h (Lung): 0.08 %ID; tissue uptake dose at 10 min (Muscle): 0.53 %ID; tissue uptake dose at 1 h (Muscle): 0.11 %ID; tissue uptake dose at 3 h (Muscle): 0.08 %ID; tissue uptake dose at 10 min (Pancreas): 0.57 %ID; tissue uptake dose at 1 h (Pancreas): 0.15 %ID; tissue uptake dose at 3 h (Pancreas): 0.09 %ID; tissue uptake dose at 10 min (Small-intestine): 0.5 %ID; tissue uptake dose at 1 h (Small-intestine): 0.14 %ID; tissue uptake dose at 3 h (Small-intestine): 0.08 %ID; tissue uptake dose at 10 min (Spleen): 0.5 %ID; tissue uptake dose at 1 h (Spleen): 0.24 %ID; tissue uptake dose at 3 h (Spleen): 0.08 %ID; tissue uptake dose at 10 min (Stomach): 0.24 %ID; tissue uptake dose at 1 h (Stomach): 0.06 %ID; tissue uptake dose at 3 h (Stomach): 0.36 %ID; Accumulation of radioactivity in bone (in words): subtle accumulation of radioactivity in bone
O=C(O)C[C@@H](NC(=O)[C@@H](CC(=O)O)NC(=O)[C@@H](CC(=O)O)NC(=O)[C@@H](CC(=O)O)NC(=O)[C@@H](CC(=O)O)NC(=O)[C@@H](CC(=O)O)NC(=O)[C@@H](CC(=O)O)NC(=O)[C@@H](CC(=O)O)NC(=O)CN1CCN(CC(=O)O)CCN(CC(=O)O)CCN(CC(=O)O)CC1)C(=O)O [^67Ga-DOTA-(D-Asp)8, metal not drawn] ({DOTA}-[dD][dD][dD][dD][dD][dD][dD][dD]-OH)	1.94 %ID	0.33 %ID	0.13 %ID	9.86 %ID	11.6 %ID	12.5 %ID	0.05 %ID	0.01 %ID	0.01 %ID	0.63 %ID	0.14 %ID	0.05 %ID	12.8 %ID	2.49 %ID	1.23 %ID	0.26 %ID	0.05 %ID	0.08 %ID	0.46 %ID	0.14 %ID	tissue uptake dose at 3 h (Liver): 0.11 %ID; tissue uptake dose at 10 min (Lung): 1.34 %ID; tissue uptake dose at 1 h (Lung): 0.26 %ID; tissue uptake dose at 3 h (Lung): 0.1 %ID; tissue uptake dose at 10 min (Muscle): 0.57 %ID; tissue uptake dose at 1 h (Muscle): 0.15 %ID; tissue uptake dose at 3 h (Muscle): 0.14 %ID; tissue uptake dose at 10 min (Pancreas): 0.57 %ID; tissue uptake dose at 1 h (Pancreas): 0.11 %ID; tissue uptake dose at 3 h (Pancreas): 0.08 %ID; tissue uptake dose at 10 min (Small-intestine): 0.39 %ID; tissue uptake dose at 1 h (Small-intestine): 0.13 %ID; tissue uptake dose at 3 h (Small-intestine): 0.1 %ID; tissue uptake dose at 10 min (Spleen): 0.42 %ID; tissue uptake dose at 1 h (Spleen): 0.16 %ID; tissue uptake dose at 3 h (Spleen): 0.09 %ID; tissue uptake dose at 10 min (Stomach): 0.34 %ID; tissue uptake dose at 1 h (Stomach): 0.04 %ID; tissue uptake dose at 3 h (Stomach): 0.1 %ID; Accumulation of radioactivity in bone (in words): high accumulation and retention of radioactivity in bone
